Source: article PMC4455059 (Nature Communications, 2015)
Where two headings read alike, the source gives them in different places. Non-standard residues stand in square brackets, D forms with d. Residues, ends and D or L forms follow the SMILES beside them. Phe(3-I) = N[C@@H](Cc1cccc(I)c1)C(=O)O; Phe(4-I) = N[C@@H](Cc1ccc(I)cc1)C(=O)O

What was measured:
[1] = cc_pd bond
chymotrypsin = assay: Proteolytic degradation assay (chymotrypsin-based protocol); assay type: in vitro ADME; settings: for half-life: chymotrypsin-based protocol (protocol of ref 51), HPLC-MS read-out, Fig. 4b, read-out: t1/2, proteolytic degradation; for protection towards enzymatic degradation (in words): chymotrypsin, after 5–6 h, HPLC-MS profiles
Protocol: Figure 4 Bioactive stapled peptides, biochemical and cellular studies. (a) Structure of stapled peptides 2l (valorphin analogue) and 2m (baratin analogue). (b) Proteolytic degradation assay of stapled peptides 2g and 2h and their linear precursors 1g and 1h. (c) Structure of labelled-stapled peptide 2j Bodipy (left) and the corresponding confocal microscopy image of SH-SY5Y cells treated with compound 2j Bodipy (750 nM). Scale bar, 25 μm (right).
Next, we determined the proteolytic stability of a couple of meaningful stapled peptides, in comparison with their respective linear counterparts. We followed a chymotrypsin-based protocol, previously used to evaluate stapled peptides.

ανβ3 integrin receptors = ανβ3 integrin receptors (Homo sapiens, UniProt P05106+P06756); assay: Inhibition of cellular adhesion (integrin antagonism); assay type: cell-based
ανβ3 integrin receptors, sequence (P06756 31-889 limits assumed): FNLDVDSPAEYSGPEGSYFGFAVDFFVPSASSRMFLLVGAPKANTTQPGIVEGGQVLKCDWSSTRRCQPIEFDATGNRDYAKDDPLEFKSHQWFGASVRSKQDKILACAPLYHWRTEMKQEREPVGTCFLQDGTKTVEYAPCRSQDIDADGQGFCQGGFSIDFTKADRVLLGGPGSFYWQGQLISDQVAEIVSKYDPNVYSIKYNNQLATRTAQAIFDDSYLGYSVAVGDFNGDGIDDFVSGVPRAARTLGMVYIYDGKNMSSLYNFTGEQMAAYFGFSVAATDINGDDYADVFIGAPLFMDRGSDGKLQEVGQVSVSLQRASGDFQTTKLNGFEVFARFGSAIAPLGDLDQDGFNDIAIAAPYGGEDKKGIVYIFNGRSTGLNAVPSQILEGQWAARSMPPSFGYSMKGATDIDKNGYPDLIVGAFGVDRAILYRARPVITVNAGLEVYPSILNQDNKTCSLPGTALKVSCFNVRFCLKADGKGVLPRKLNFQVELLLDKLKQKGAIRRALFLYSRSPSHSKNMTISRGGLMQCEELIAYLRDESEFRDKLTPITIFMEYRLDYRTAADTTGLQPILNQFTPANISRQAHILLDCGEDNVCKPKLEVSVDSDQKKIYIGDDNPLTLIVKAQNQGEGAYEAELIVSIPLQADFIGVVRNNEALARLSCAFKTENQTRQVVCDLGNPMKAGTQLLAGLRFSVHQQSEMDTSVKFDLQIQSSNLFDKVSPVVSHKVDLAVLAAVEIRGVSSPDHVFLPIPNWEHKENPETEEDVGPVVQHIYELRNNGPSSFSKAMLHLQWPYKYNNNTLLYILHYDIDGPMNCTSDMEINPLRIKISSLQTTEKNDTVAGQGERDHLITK
ανβ3 integrin receptors, sequence (P06756 891-1048 partner limits assumed): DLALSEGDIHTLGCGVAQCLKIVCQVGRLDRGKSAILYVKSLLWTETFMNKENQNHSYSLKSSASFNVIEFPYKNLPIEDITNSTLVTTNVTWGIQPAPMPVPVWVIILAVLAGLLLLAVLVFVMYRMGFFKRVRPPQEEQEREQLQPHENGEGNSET
ανβ3 integrin receptors, sequence (P05106 27-788): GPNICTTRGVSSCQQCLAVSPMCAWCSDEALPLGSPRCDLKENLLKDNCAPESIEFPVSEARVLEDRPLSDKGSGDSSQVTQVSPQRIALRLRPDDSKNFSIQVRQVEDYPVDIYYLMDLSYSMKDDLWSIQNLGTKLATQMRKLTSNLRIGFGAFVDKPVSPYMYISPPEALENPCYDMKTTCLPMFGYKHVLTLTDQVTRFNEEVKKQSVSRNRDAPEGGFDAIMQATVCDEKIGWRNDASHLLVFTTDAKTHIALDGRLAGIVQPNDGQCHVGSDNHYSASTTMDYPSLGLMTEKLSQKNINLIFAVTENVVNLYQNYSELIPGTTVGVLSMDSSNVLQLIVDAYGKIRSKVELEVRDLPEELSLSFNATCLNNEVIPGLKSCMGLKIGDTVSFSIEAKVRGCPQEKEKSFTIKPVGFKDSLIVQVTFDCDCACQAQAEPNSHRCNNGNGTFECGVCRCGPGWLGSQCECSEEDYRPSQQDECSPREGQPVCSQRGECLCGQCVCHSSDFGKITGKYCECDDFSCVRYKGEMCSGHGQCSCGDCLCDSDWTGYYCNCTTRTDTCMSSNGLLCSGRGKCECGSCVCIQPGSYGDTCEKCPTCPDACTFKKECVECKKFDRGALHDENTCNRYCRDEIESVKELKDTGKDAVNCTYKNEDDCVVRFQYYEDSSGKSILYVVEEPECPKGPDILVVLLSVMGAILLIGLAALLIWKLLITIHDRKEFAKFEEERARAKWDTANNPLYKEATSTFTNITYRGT
Source text: However, it has to be considered that even linear analogues display a much lower potency (10–10^3 times, depending on the targeted integrin) than the parent cilengitide.

[2] = system: several cancer cell lines; assay: Preliminary biological studies against several cancer cell lines; assay type: cell-based
Source text: Nevertheless, the protocol seems general and offers new possibilities for peptide-based conjugation.

α-chymotrypsin = assay: chymotrypsin-based protocol; settings: up to 6 h
SH-SY5Y cells [3] = assay: Cytotoxicity, MTT assay; assay type: cell-based; settings: 750 nM, 24 h incubation, triplicate, three independent experiments
Source text: (§1) Finally, we studied the controlled labelling of the stapled peptides. The goal was to selectively attach a fluorophore to the C-terminal amino acid to trace cellular permeabilization and localization. Thus, we linked a Bodipy residue to cyclopeptide 2j through an amino spacer (the novel Bodipy construct was designed and prepared for this purpose, see Supplementary Fig. 16 and Supplementary Methods), to get the desired labelled-stapled peptide 2j Bodipy (Fig. 4c) in a convenient manner. […] The cells treated in this manner were analysed using confocal microscopy.
(§2) Supplementary Figure 17 Cytotoxicity of 1j-Bodipy and 2j-Bodipy peptides using the MTT assay. The toxicity assay was carried out as described in the literature.13 SH-SY5Y cells were transferred to 96-well plates (100 μL medium/well) at a density of 5000 cell/well. After 24 h, cells in triplicate were treated either with 1j-Bodipy or 2j-Bodipy (750 nM and 50 µM) or TRITON 0.2% as positive control for 24 h. Values are represented as means ± SD from three independent experiments.
(§3) Supplementary Figure 18 FACS analysis of SH-SY5Y cells upon incubation with 1j-Bodipy and 2j-Bodipy. For FACS analysis, SH-SY5Y cells were seeded on a plastic 24 well plate and cultured for 24 h. […] Fluorescence sorting was performed with a Gallios Beckman Coulter flow […]

SH-SY5Y cells [4] = assay: Cell penetration and localization (FACS flow cytometry and confocal microscopy); assay type: cell-based; settings: 750 nM
Source text: as §1, §2, §3

Which ring closure, conversion ([1]; from Ac-Phe(3-I)-Asn-Gly-Arg-Trp-NH2, 20-membered ring, Pd(OAc)2 5 mol%/AgBF4/TFA, MW 20 min, DMF, 49.0 mM, 90.0 °C) does the source give for `CC(=O)N[C@H]1Cc2cccc(c2)-c2[nH]c3ccccc3c2C[C@@H](C(N)=O)NC(=O)[C@H](CCCNC(=N)N)NC(=O)CNC(=O)[C@H](CC(N)=O)NC1=O` [Ac-Phe(3-I)-Asn-Gly-Arg-Trp-NH2] here?
Its ring closure, conversion is 77%.

With `CC(=O)N[C@@H](C)C(=O)N[C@H]1Cc2cccc(c2)-c2[nH]c3ccccc3c2C[C@@H](C(=O)N[C@@H](C)C(=O)O)NC(=O)[C@H](C)NC(=O)[C@H](C)NC(=O)[C@H](C)NC1=O` [Ac-Ala-Phe(3-I)-Ala-Ala-Ala-Trp-Ala-OH] as the compound, how does the ring closure, conversion ([1]; from Ac-Ala-Phe(3-I)-Ala-Ala-Ala-Trp-Ala-OH, 20-membered ring, Pd(OAc)2 5 mol%/AgBF4/2-NO2BzOH, MW 15 min, DMF:PBS 1:1, 80.0 °C) read?
The ring closure, conversion was 100%.

With `CC(=O)N[C@@H](C)C(=O)N[C@H]1Cc2ccccc2-c2[nH]c3ccccc3c2C[C@@H](C(=O)N[C@@H](C)C(=O)O)NC1=O` [Ac-Ala-Phe(2-I)-Trp-Ala-OH?] as the compound, how does the ring closure, conversion ([1]; from Ac-Ala-Phe(2-I)-Trp-Ala-OH?, 10-membered ring, Pd(OAc)2/AgBF4/TFA?) read?
The ring closure, conversion was 0%.

With `CC(=O)N[C@@H](C)C(=O)N[C@H]1Cc2ccc(cc2)-c2[nH]c3ccccc3c2C[C@@H](C(=O)N[C@@H](C)C(=O)O)NC(=O)[C@@H](NC(=O)[C@H](C)NC(C)=O)Cc2ccc(cc2)-c2[nH]c3ccccc3c2C[C@@H](C(=O)N[C@@H](C)C(=O)O)NC1=O` [Ac-Ala-Phe(4-I)-Trp-Ala-OH] as the compound, how does the ring closure, conversion ([1]; from Ac-Ala-Phe(4-I)-Trp-Ala-OH, 24-membered ring, Pd(OAc)2 5 mol%/AgBF4/TFA, MW 20 min, DMF, 63.0 mM, 90.0 °C) read?
Its ring closure, conversion is 60%.

For `CC(=O)N[C@@H](C)C(=O)N[C@H]1Cc2ccc(O)c(c2)-c2[nH]c3ccccc3c2C[C@@H](C(=O)N[C@@H](C)C(=O)O)NC(=O)[C@H](C)NC1=O` [Ac-Ala-Tyr(3-I)-Ala-Trp-Ala-OH], which ring closure, conversion ([1]; from Ac-Ala-Tyr(3-I)-Ala-Trp-Ala-OH, 14-membered ring, Pd(OAc)2 5 mol%/AgBF4/2-NO2BzOH, MW 15 min, DMF:PBS 1:1, 80.0 °C) is on record?
Its ring closure, conversion is 100%.

With `CC(=O)N[C@@H](C)C(=O)N[C@H]1Cc2cccc(c2)-c2[nH]c3ccccc3c2C[C@@H](C(=O)N[C@@H](C)C(=O)O)NC(=O)[C@H](C)NC1=O` [Ac-Ala-Phe(3-I)-Ala-Trp-Ala-OH] as the compound, how does the ring closure, conversion ([1]; from Ac-Ala-Phe(3-I)-Ala-Trp-Ala-OH, 14-membered ring, Pd(OAc)2 5 mol%/AgBF4/2-NO2BzOH, MW 15 min, DMF:PBS 1:1, 80.0 °C) read?
The ring closure, conversion was 38%.

Which ring closure, conversion ([1]; from H-Ala-Phe(3-I)-Ser-Ala-Trp-Ala-OH, 17-membered ring, Pd(OAc)2 5 mol%/AgBF4/TFA, MW 20 min, DMF, 54.0 mM, 90.0 °C) does the source give for `C[C@H](N)C(=O)N[C@H]1Cc2cccc(c2)-c2[nH]c3ccccc3c2C[C@@H](C(=O)N[C@@H](C)C(=O)O)NC(=O)[C@H](C)NC(=O)[C@H](CO)NC1=O` [H-Ala-Phe(3-I)-Ser-Ala-Trp-Ala-OH] here?
The ring closure, conversion was 39%.

For `CC(=O)N[C@@H](Cc1cccc(I)c1)C(=O)N[C@@H](CCCNC(=N)N)C(=O)NCC(=O)N[C@@H](CC(=O)O)C(=O)N[C@@H](Cc1c[nH]c2ccccc12)C(N)=O` [1h, Ac-m-I-Phe-Arg-Gly-Asp-Trp-NH2] (Ac-[Phe(3-I)]RGDW-NH2), which half-life (chymotrypsin) is on record?
The half-life was 52.5 min.

And the “protection towards enzymatic degradation (in words)” value (chymotrypsin)?
The value was “completely disappeared”.

And the EC50 (ανβ3 integrin receptors; preliminary studies, ανβ3 integrin antagonism, read-out: EC50, capacity to inhibit cellular adhesion)?
The EC50 was 26 µM.

Which results are given for `CC(=O)N[C@@H](Cc1cccc(I)c1)C(=O)N[C@@H](CC(N)=O)C(=O)NCC(=O)N[C@@H](CCCNC(=N)N)C(=O)N[C@@H](Cc1c[nH]c2ccccc12)C(N)=O` [1g, Ac-m-I-Phe-Asn-Gly-Arg-Trp-NH2] (Ac-[Phe(3-I)]NGRW-NH2)?
half-life (chymotrypsin): 19.8 min; protection towards enzymatic degradation (in words) (chymotrypsin): completely disappeared

Which ring closure, conversion ([1]; from Ac-Ala-Tyr(3-I)-Ala-Ala-Trp-Ala-OH, 17-membered ring, Pd(OAc)2 5 mol%/AgBF4/2-NO2BzOH, MW 15 min, DMF:PBS 1:1, 80.0 °C) does the source give for `CC(=O)N[C@@H](C)C(=O)N[C@H]1Cc2ccc(O)c(c2)-c2[nH]c3ccccc3c2C[C@@H](C(=O)N[C@@H](C)C(=O)O)NC(=O)[C@H](C)NC(=O)[C@H](C)NC1=O` [Ac-Ala-Tyr(3-I)-Ala-Ala-Trp-Ala-OH] here?
Its ring closure, conversion is 100%.

For `C[C@@H]1NC(=O)[C@H](CCCNC(=N)N)NC(=O)CNC(=O)[C@H](CC(N)=O)NC(=O)[C@H](C)NC(=O)[C@H](Cc2c[nH]c3ccccc23)NC1=O` [compound 3] (cyclo(ANGRAW)), which “activity against several cancer cell lines (in words)” value [2] is on record?
The value was “only the cyclopeptide 4 showed activity”.

Which ring closure, conversion ([1]; from Ac-Ala-Phe(3-I)-Val-Trp-Ala-OH, 14-membered ring, Pd(OAc)2 5 mol%/AgBF4/TFA, MW 20 min, DMF, 55.0 mM, 90.0 °C) does the source give for `CC(=O)N[C@@H](C)C(=O)N[C@H]1Cc2cccc(c2)-c2[nH]c3ccccc3c2C[C@@H](C(=O)N[C@@H](C)C(=O)O)NC(=O)[C@H](C(C)C)NC1=O` [Ac-Ala-Phe(3-I)-Val-Trp-Ala-OH] here?
The ring closure, conversion was 71%.

With Ac-[Phe(3-I)]NGRW-NH2 as the compound, how does the cleaved bond (α-chymotrypsin) read?
Its cleaved bond is “m-I-Phe-Asn”.

With `CC(=O)N[C@@H](C)C(=O)N[C@H]1Cc2cccc(c2)-c2[nH]c3ccccc3c2C[C@@H](C(=O)N[C@@H](C)C(=O)O)NC(=O)[C@H](C)NC(=O)[C@H](C)NC1=O` [Ac-Ala-Phe(3-I)-Ala-Ala-Trp-Ala-OH] as the compound, how does the ring closure, conversion ([1]; from Ac-Ala-Phe(3-I)-Ala-Ala-Trp-Ala-OH, 17-membered ring, Pd(OAc)2 5 mol%/AgBF4/2-NO2BzOH, MW 15 min, DMF:PBS 1:1, 80.0 °C) read?
The ring closure, conversion was 100%.

Which ring closure, conversion ([1]; from Ac-Ala-Tyr(3-I)-Ala-Ala-Ala-Trp-Ala-OH, 20-membered ring, Pd(OAc)2 5 mol%/AgBF4/2-NO2BzOH, MW 15 min, DMF:PBS 1:1, 80.0 °C) does the source give for `CC(=O)N[C@@H](C)C(=O)N[C@H]1Cc2ccc(O)c(c2)-c2[nH]c3ccccc3c2C[C@@H](C(=O)N[C@@H](C)C(=O)O)NC(=O)[C@H](C)NC(=O)[C@H](C)NC(=O)[C@H](C)NC1=O` [Ac-Ala-Tyr(3-I)-Ala-Ala-Ala-Trp-Ala-OH] here?
Its ring closure, conversion is 100%.

For `CC(=O)N[C@@H](C)C(=O)N[C@H]1Cc2cccc(c2)-c2[nH]c3ccccc3c2C[C@@H](C(=O)N[C@@H](C)C(=O)NCCNC(=O)CCC(=O)Nc2ccc(C3=C4C(C)=CC(C)=[N+]4[B-](F)(F)n4c(C)cc(C)c43)cc2)NC(=O)[C@H](C(C)C)NC1=O` [2j Bodipy], which “cytotoxicity (in words)” value (SH-SY5Y cells [3]) is on record?
The value was “low cytotoxicity”.

And the “cellular localization / penetration (in words)” value (SH-SY5Y cells [4]; incubation 30 min at 37 °C, confocal microscopy, fluorescence)?
Its value is “localized both in the membrane and in the cytoplasmatic region”.

And the “cell staining in flow cytometry (FACS) (in words)” value (SH-SY5Y cells [4]; incubation for 30 min, 37 °C, 5% CO2, fluorescence)?
The value was “brightly stained”.

For `CC(=O)N[C@H]1Cc2cccc(c2)-c2[nH]c3ccccc3c2C[C@@H](C(N)=O)NC(=O)[C@H](CC(=O)O)NC(=O)CNC(=O)[C@H](CCCNC(=N)N)NC1=O` [2h], which “protection towards enzymatic degradation (in words)” value (chymotrypsin) is on record?
Its value is “almost total protection”.

And the “selectivity ανβ3 versus ανβ5 integrin receptors (in words)” value (ανβ3 integrin receptors; preliminary cellular adhesion studies)?
Its value is “act selectively as antagonists for the ανβ3 in front of ανβ5 integrin receptors”.

For `CC(=O)N[C@H]1Cc2cccc(c2)-c2[nH]c3ccccc3c2C[C@@H](C(N)=O)NC(=O)[C@H](CC(=O)O)NC(=O)CNC(=O)[C@H](CCCNC(=N)N)NC1=O` [Ac-Phe(3-I)-Arg-Gly-Asp-Trp-NH2], which ring closure, conversion ([1]; from Ac-Phe(3-I)-Arg-Gly-Asp-Trp-NH2, 20-membered ring, Pd(OAc)2 5 mol%/AgBF4/TFA, MW 20 min, DMF, 49.0 mM, 90.0 °C) is on record?
Its ring closure, conversion is 70%.

For Ac-[Phe(3-I)]RGDW-NH2, which cleaved bond (α-chymotrypsin) is on record?
The cleaved bond was “m-I-Phe-Arg”.

Which ring closure, conversion ([1]; from Ac-Ala-Phe(3-I)-Trp-Ala-OH?, 11-membered ring, Pd(OAc)2/AgBF4/TFA?) does the source give for `CC(=O)N[C@@H](C)C(=O)N[C@H]1Cc2cccc(c2)-c2[nH]c3ccccc3c2C[C@@H](C(=O)N[C@@H](C)C(=O)O)NC1=O` [Ac-Ala-Phe(3-I)-Trp-Ala-OH?] here?
The ring closure, conversion was 60%.

Which IC50 [2] does the source give for `CC(C)C[C@@H]1NC(=O)[C@H](Cc2ccc(I)cc2)NC(=O)[C@H](CC(C)C)NC(=O)[C@H](C(C)C)NC(=O)[C@H](CC(C)C)NC1=O` [compound 4] (cyclo(LLVL[Phe(4-I)])) here?
Its IC50 is under 10 µM.
